Molecules are shown by their SMILES. Counter-ions that a name gives are not always drawn.

This note sets out measurements from BindingDB's records for doi:10.3109/14756366.2012.681653 (Atatürk University, 2013).

Sequence of Serum paraoxonase/arylesterase 1 (P27169 whole entry): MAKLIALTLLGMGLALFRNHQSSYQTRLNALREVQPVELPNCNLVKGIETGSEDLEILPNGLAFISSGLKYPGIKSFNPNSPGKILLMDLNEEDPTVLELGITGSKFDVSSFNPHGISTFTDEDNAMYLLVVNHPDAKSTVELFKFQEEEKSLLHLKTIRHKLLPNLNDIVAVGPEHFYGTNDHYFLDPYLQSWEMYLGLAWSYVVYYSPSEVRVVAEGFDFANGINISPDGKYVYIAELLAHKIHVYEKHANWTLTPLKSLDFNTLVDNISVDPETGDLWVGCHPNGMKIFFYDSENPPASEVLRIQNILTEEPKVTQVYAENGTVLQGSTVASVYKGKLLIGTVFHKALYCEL

This assay has as its target Serum paraoxonase/arylesterase 1 (Homo sapiens, UniProt P27169). Kind of assay: PON Activity Assay. On the procedure:
PON activities were measured in the presence of different drug concentrations. Control activity was assumed to be 100% in the absence of inhibitor. Experiments of all compounds were tested in triplicate at each concentration used and Activity%-[Drug] graphs were drawn for each drug. Determination of Ki values was performed by using three different inhibitor concentrations. In these experiments, paraoxone was used as substrate at five different concentrations (0.15, 0.3, 0.45, 0.6, and 0.75 mM).
In general, Ki refers to a measure of affinity in units of concentration, obtained from inhibition or displacement. With `CN(C)[C@@H]1C(=O)C(C(N)=O)=C(O)[C@@]2(O)C(=O)C3=C(O)c4c(O)cccc4[C@@](C)(O)[C@H]3[C@H](O)[C@@H]12` [Oxytetracycline hydrochloride], the Ki was 0.2 mM.

`CN[C@H]1[C@@H](O[C@@H]2[C@@H](O[C@H]3[C@H](O)[C@@H](O)[C@H](N=C(N)N)[C@@H](O)[C@@H]3N=C(N)N)O[C@H](C)[C@@]2(O)C=O)O[C@H](CO)[C@@H](O)[C@@H]1O` [Streptomycin sulfate] came in with a Ki of 56.3 mM.

As for `CCC[C@@H]1C[C@@H](C(=O)N[C@@H]([C@H]2O[C@H](SC)[C@H](O)[C@@H](O)[C@H]2O)[C@@H](C)O)N(C)C1` [(2S,4R)-N-((1R,2R)-2-hydroxy-1-((2R,3R,4S,5R,6R)-3,4,5-trihydroxy-6-(methylthio)-tetrahydro-2H-pyran-2-yl)propyl)-1-methyl-4-propylpyrrolidine-2-carboxamide], the inhibition constant (Ki) amounted to 18.3 mM.

As to `CCN[C@@H]1C[C@H](N)[C@H](O[C@H]2OC(CN)=CC[C@H]2N)[C@H](O)[C@H]1O[C@H]1OC[C@](C)(O)[C@H](NC)[C@H]1O` [Netilmycin sulfate], the Ki is 3.73 mM.

The compound `CCC[C@@H]1C[C@@H](C(=O)N[C@@H]([C@H]2O[C@H](SC)[C@H](OP(=O)(O)O)[C@@H](O)[C@H]2O)[C@H](C)Cl)N(C)C1` [Clindamycin phosphate] registered a Ki of 35.8 mM. Compared with the last compound, the Ki is about 9.6-fold higher.
